Details of series [1]: method as in PMID 24737689, PMID 35470838. To be noted: cited from earlier work.
For series [2], the system named is MDA-MB-231 xenograft-bearing nude mice. In words: Biodistribution (boron by ICP-OES) in MDA-MB-231 xenograft model. The format is in vivo, mouse. Particulars: 7.5 mg B/kg i.v., 1 and 4 h post-injection. The procedure:
The biodistribution of Na[o-FESAN] (7.5 mg B/kg, i.v.) was evaluated in an MDA-MB-231 breast cancer xenograft model, and the results at 1 and 4 h are shown in Figure 2.
All animal experiments were approved by the Animal Care and Use Committee of the Institute of Science Tokyo and performed in accordance with the Guidelines for the Care and Use of Laboratory Animals as stated by the Institute of Science Tokyo (Approval number “D2021007”). All animals were maintained under controlled conditions of temperature and humidity with ad libitum water and feeding. MDA-MB-231 tumor-bearing mice (Balb/cSlc-nu/nu, female, 5–6 weeks old, 14–20 g, Sankyo Labo Service Co., Ltd., Hamamatsu, Japan) were prepared by injecting subcutaneously (s.c.) a suspension of MDA-MB-231 cells (8.0 × 10^5 cells/mouse) directly into the right thigh. The mice were kept on a regular chow diet and water, and maintained under a 12 h light/dark cycle in an ambient atmosphere. When the tumor diameter became 5 to 7 mm, the mice were injected via the tail vein with 200 µL PBS solution of Na[o-FESAN] (7.5 mg B/kg). […] After filtering through a hydrophobic filter, boron concentration was measured by inductively coupled plasma optical emission spectroscopy (ICP-OES) using an iCAP 7400 Duo elemental analyzer (Thermo Fisher Scientific Inc., Waltham, MA, USA).

The subject of series [3] is SKBR-3 cells. In words: Cytotoxicity, MTT assay before irradiation. The format is cell-based, human. Particulars: SKBR-3, 24 h treatment. Here is the method: (§1) The cytotoxicity of Na[o-FESAN] in breast cancer cells was evaluated to help the selection of the work concentrations for the uptake and irradiation studies. Moreover, the general requirements of therapeutic drugs include, among others, low cytotoxicity and high tumor uptake.
(§2) Before the irradiation studies, the concentrations of Na[o-FESAN] were selected. SKBR-3 and MDA-MB-231 cells were counted with a Neubauer chamber using Trypan Blue exclusion and a Zeiss Primovert microscope, seeded in 96-well plates (1–2 × 10^4 cells/200 µL medium) and incubated at 37 °C for 24 h to adhere. Then, the medium was discarded, and cells were incubated with Na[o-FESAN] at serial concentrations in complete medium in the range 1–300 µM for 24 h. After incubation, the cellular viability was determined using the MTT assay as previously described.
(Tetrazolium dyes change colour on reduction, which living cells bring about.)

Series [4] concerns MDA-MB-231 cells. In words: Cytotoxicity, MTT assay before irradiation. The format is cell-based, human. Particulars: MDA-MB-231, 24 h treatment. The procedure: as §1, §2
Series [5] relates to MDA-MB-231 cells. In words: Morphological analysis by TEM. The format is cell-based, human. Particulars: MDA-MB-231, 50 µM, 24 h. The procedure:
Transmission electron microscopy (TEM) was used to assess the structural integrity of MDA-MB-231 cells and to examine the effects at the organelle level before and 2 h after irradiation with proton beams (2.0 MeV).
MDA-MB-231 cells were seeded into 6-well plates at approx. 70% confluence. After 24 h, cells were treated with Na[o-FESAN] at 50 µM for 24 h. After incubation, cells were irradiated with a proton beam as described above and processed for TEM analysis 2 h later, following a previously described method. Briefly, the preparation of the cells included several steps of fixation: primary fixation with 3% glutaraldehyde in 0.1 M sodium cacodylate buffer, pH 7.3; secondary fixation with 1% osmium tetroxide in 0.1 M sodium cacodylate buffer, pH 7.3 for 3 h; tertiary fixation and contrasting with 0.5% uranyl acetate in the same buffer for 1 h, dehydration with ethanol and resin (Epon-Araldite) (Merck, Darmstadt, Germany) infiltration and embedding. The stained cells were then photographed and studied using a JEOL 100-SX electron microscope JEOL, Tokyo, Japan.

Series [6] has as its system SKBR-3 cells. In words: Viability and proliferation after thermal neutron irradiation (BNCT). In kind it is cell-based, human. To be noted: SKBR-3, 50 and 100 µM, 24 h, thermal neutrons 15 min at 30 kW, growth followed 10 days. Here is the method:
(§3) For neutron irradiation, SKBR-3 and MDA-MB-231 cells were incubated with Na[o-FESAN] at 50 and 100 µM and were irradiated with thermal neutrons at the Triga Mark II nuclear reactor at the University of Pavia. […] Both surviving SKBR-3 and MDA-MB-231 cells that were treated with Na[o-FESAN] […] This clearly indicates the important contribution of neutron capture to induce a long-term cytotoxic effect. Another important point is that the toxic effect was observed using Na[o-FESAN] containing natural B. In fact, the amount of internalized B measured by ICP-MS after 24 h incubation with 50 or 100 µM Na[o-FESAN] contained only 19.9% of the active ^10B isotope. Assuming that in the case of epithelial tumors (with a diameter ranging from 15–20 µm), a density of ca. 10^8 cells for cm^3 is a reasonable number, [76] from the data obtained by ICP-MS analysis, it was possible to calculate the amount of ^10B internalized in cells expressed in ppm (µg/g).
(§4) SKBR-3 and MDA-MB-231 cells were seeded in 25 cm^2 flasks (12 flasks for each cell line) at a density of 6.5 × 10^5 cells. […]
(§5) Twenty-four hours after irradiation, cells were detached with 0.05% trypsin and 0.02% EDTA, and cell viability was evaluated using the trypan blue exclusion test and reported as the percentage of cells observed in treated and/or irradiated samples with respect to that observed in control cells. […] The cell growth was followed for 10 days, and at pre-determined times, the cells were washed with PBS, detached with 0.05% trypsin and 0.02% EDTA, and transferred into falcon tubes. Then, cells were sonicated for 30 s at 30% power in ice, and the total cell protein concentration (that is, proportional to the number of cells) from cell lysates was determined by the Bradford method, using bovine serum albumin as a standard. The cell growth rate was calculated as follows: [(number of cells(ti) − number of cells(t0))/number of cells(t0)] × 100 where (ti) is the number of cells measured at the various time intervals and (t0) is the number of cells at the starting point (t = 0) of the proliferation assay.

The test system of series [7] is MDA-MB-231 cells. The series is described as above. In kind it is cell-based, human. Here is the method:
as §3, §4, §5

For series [8], the system named is SKBR-3 cells. The experiment in a line: Intracellular ROS (H2DCF-DA) after proton irradiation. In kind it is cell-based, human. To be noted: SKBR-3, 50 and 100 µM, 24 h, protons 0.235 Gy, up to 48 h post-irradiation. The procedure:
(§6) In non-irradiated cells (with/without treatment), no appreciable ROS formation was observed.
(§7) Intracellular ROS levels were measured using the 2′,7′-dichlorodihydrofluorescein diacetate (H2DCF-DA) fluorescent probe as previously described. […] Then, the probe (10 µM) in colorless DMEM medium (FluoroBrite™ DMEM, Gibco®, Waltham, MA, USA) was incubated with the cells for an additional 30 min. at 37 °C. Later, the medium was removed and replaced by a fresh one. The fluorescence intensity was continuously measured up to 48 h with a Varioskan LUX scanning multimode reader (Thermo Fisher Scientific, Waltham, MA, USA). Results of fluorescence (mean ± SD) were expressed as the fold change in fluorescence levels compared with controls (non-irradiated treated cells).

Series [9] concerns MDA-MB-231 cells. The series is described as above. In kind it is cell-based, human. Particulars: MDA-MB-231, 50 and 100 µM, 24 h, protons 0.235 Gy, up to 48 h post-irradiation. The procedure: as §6, §7
On the set-up of series [10]: method as in PMID 36373493. Particulars: cited from earlier work.

For orientation: IC50 means the concentration at which inhibition is half-maximal. As to [3,3′-Fe(1,2-C2B9H11)2]^− [Na[o-FESAN]], the Solubility in water result in [1] was “approx. 1 M”. Besides, the “Clearance in blood and main organs (heart, liver, lung, kidney, spleen, muscle)” value in [2] is listed as “slow”. Besides, in [2], the Tumor uptake result is listed as “remained relatively high”. Besides, the IC50 in the series on SKBR-3 cells [3] worked out at 83.5 ± 18.6 µM; in the series on MDA-MB-231 cells [4] it was 103 ± 24.9 µM. In addition, the “Cell morphology (TEM), no irradiation” value in the series on MDA-MB-231 cells [5] was “moderate amount of vacuolization”. Also, in the series on MDA-MB-231 cells [5] (proton beam 2.0 MeV), the “Cell morphology (TEM), 2 h after proton irradiation” value is listed as “necrosis”. Also, the “Proliferation of surviving cells after neutron irradiation” value is recorded as “marked inhibition of proliferation” in the series with SKBR-3 cells [6]; “marked inhibition of proliferation” in the series with MDA-MB-231 cells [7] (MDA-MB-231, 50 and 100 µM, 24 h, thermal neutrons 15 min at 30 kW, growth followed 10 days). Besides, in the series on MDA-MB-231 cells [7] (MDA-MB-231, 24 h post irradiation, trypan blue), the “Number of viable cells after treatment and neutron irradiation vs non-treated irradiated cells” value is “significantly different”. Further, the “ROS levels after proton irradiation vs non-irradiated controls” value with SKBR-3 cells [8] and in the series on MDA-MB-231 cells [9] was “increased ROS levels in a dose-dependent manner” throughout. The “Stability in cellular medium” value in [10] is reported as “did not suffer degradation”.

These data come from article PMC12567515, “Assessment of Carrier-Free Metallacarboranes for Targeted Radiation Therapies PBFT and BNCT: Comparative Cellular Effects and Dosimetry Studies with [o-FESAN]^− in Breast Cancer Cells” (Pharmaceuticals, 2025).
